This is an account of results in patent US11040963B2 (priority 2017, dated 2021).

Series [1] has as its target HA H1 A/California/07/09 (Influenza A virus (A/California/07/2009(H1N1)), UniProt C3W5X2). Kind of series: biochemical. The note with it: Competition binding (AlphaLISA), pIC50 H1 A/California/07/09. In general terms: Alpha assays give light when donor and acceptor beads are brought close together.
Series [2] deals with HA H1 A/New Caledonia/20/99 (Influenza A virus (A/New Caledonia/20/1999(H1N1)), UniProt Q6WG00). Kind of series: biochemical. The conditions noted are these: Competition binding (AlphaLISA), pIC50 H1 A/New Caledonia/20/99.
For series [3], the target named is HA H5 A/Vietnam/1203/04 (Influenza A virus (A/Vietnam/1203/2004(H5N1)), UniProt Q5EP31). Kind of series: biochemical. The note with it: Competition binding (AlphaLISA), pIC50 H5 A/Vietnam/1203/04.
The test system of another series is H1N1 A/California/07/09. Kind of series: microbe, parasite or virus in culture. The class given is cell-based, influenza A virus. The note with it: for EC50: Influenza A virus, H1N1, MDCK, 96 h, read-out: Virus neutralization assay (VNA), pEC50 H1N1 A/California/07/09 (converted).
Series [4] has as its system H1N1 A/New Caledonia/20/99. Kind of series: microbe, parasite or virus in culture. The conditions noted are these: for EC50: Influenza A virus, H1N1, MDCK, 96 h, read-out: Virus neutralization assay (VNA), pEC50 H1N1 A/New Caledonia/20/99 (converted). The class given is cell-based, influenza A virus.
The next series relates to H5N1 A/Vietnam/1203/04. Kind of series: microbe, parasite or virus in culture. The class given is cell-based, influenza A virus. The note with it: 96 h, average of repeats; for EC50: Influenza A virus, H5N1, MDCK, read-out: Virus neutralization assay (VNA), pEC50 H5N1 A/Vietnam/1203/04, MDCK cells, 96 h, CPE by ATPlite (converted). (ATP-based viability assays read luminescence as a measure of living cells.)

A further series can be described thus: in vitro. The note with it: dog, Cytotoxicity (pCC50) MDCK.

For orientation: IC50 means the point on the concentration scale where inhibition reaches its midpoint. Read a low IC50 as greater potency. The term CC50 denotes the concentration at which the toxic effect on the cells reaches its halfway point. Low values mean greater toxicity to the cells, high ones lower toxicity to the cells. On to `NCc1nnc(C(c2ccccc2)N2CCN(C(=O)c3cccc(-c4nc5cc(C(F)(F)F)ccc5o4)c3)CC2)o1` (stereo not shown) [Example 75], for which the IC50 in series [1] is 200 nM; in series [2] it was 158 nM; in series [3] it was 3980 nM. Moreover, the EC50 is 1000 nM with H1N1 A/California/07/09, 631 nM in series [4] and 7940 nM in the series on H5N1 A/Vietnam/1203/04. In the series “in vitro”, this molecule gave a CC50 of 10000 nM.

`Cc1nnc([C@@H](c2ccccc2)N2CCN(C(=O)c3cccc(-c4cnc5ccccc5c4)c3)CC2)o1` [Example 76]: the 50% inhibitory concentration (IC50) in series [1] was 200 nM; in series [2], 158 nM; in series [3] it was 10000 nM. Besides, the EC50 in the series on H1N1 A/California/07/09 was 1260 nM; in series [4], 631 nM; in the series with H5N1 A/Vietnam/1203/04, 31600 nM. For the same molecule, the CC50 in the series “in vitro” is 15800 nM.

For the molecule `Cc1nnc([C@@H](c2ccccc2)N2CCN(C(=O)c3cccc(-c4nc5cccc(C)c5o4)c3)CC2)o1` [Example 77], the IC50 in series [1] was 251 nM; in series [2], 200 nM; in series [3], 10000 nM. Also, the values for the EC50 (with H1N1 A/California/07/09; in series [4]; in the series with H5N1 A/Vietnam/1203/04) were 1260 nM, 631 nM and above 50100 nM, respectively. In “in vitro”, this molecule gave a CC50 of 3980 nM.

For the molecule `COC(=O)C(c1ccccc1)N1CCN(C(=O)c2cccc(-c3nc4ccc(OC)cc4s3)n2)CC1` (stereo not shown) [Example 78], the figures for the IC50 in series [1], in series [2] and in series [3] were 631 nM, 316 nM and 25100 nM, respectively. Further, the EC50 was 1260 nM in the series on H1N1 A/California/07/09, 631 nM in series [4] and 50100 nM in the series on H5N1 A/Vietnam/1203/04. The CC50 in the series “in vitro” was above 50100 nM.

On to `COc1ccc2nc(-c3cccc(C(=O)N4CCN(C(c5ccccc5)c5nnco5)CC4)c3)sc2c1` (stereo not shown) [Example 79], for which the results for the IC50 in series [1], in series [2] and in series [3] were 200 nM, 79.4 nM and 1260 nM, respectively. Besides, the EC50 in the series on H1N1 A/California/07/09 is 1580 nM; in series [4], 631 nM; in the series with H5N1 A/Vietnam/1203/04 it was 12600 nM. Moreover, the CC50 in the series “in vitro” is above 50100 nM.

Consider `COC(=O)C(c1ccccc1)N1CCN(C(=O)c2ccc(-c3nc4ccc(OC)cc4s3)o2)CC1` (stereo not shown) [Example 80], for which the figures for the IC50 in series [1], in series [2] and in series [3] were 316 nM, 251 nM and 1000 nM, respectively. Further, the EC50 with H1N1 A/California/07/09 is 1580 nM; in series [4], 631 nM; in the series with H5N1 A/Vietnam/1203/04 it was above 50100 nM. For the same molecule, the CC50 in “in vitro” is above 50100 nM.

Consider `COC(=O)C(c1ccccc1)N1CCN(C(=O)c2cccc(NC(=O)c3ccc(OC)cc3)c2)CC1` (stereo not shown) [Example 81], for which the IC50 in series [1] is 200 nM; in series [2], 126 nM; in series [3], 1260 nM. The EC50 in the series on H1N1 A/California/07/09 is 2000 nM; in series [4], 631 nM; with H5N1 A/Vietnam/1203/04 it was 10000 nM. In “in vitro”, the CC50 is above 50100 nM.

For the molecule `COc1ccc2nc(-c3cccc(C(=O)N4CCN(C(CO)c5ccccc5)CC4)c3)sc2c1` (stereo not shown) [Example 82], the IC50 in series [1] was 200 nM; in series [2], 126 nM; in series [3], 1000 nM. The EC50 is 2000 nM in the series on H1N1 A/California/07/09, 631 nM in series [4] and 12600 nM in the series with H5N1 A/Vietnam/1203/04. Besides, in the series “in vitro”, the midpoint of cytotoxicity, the CC50, lay at 5010 nM.

As to `COc1ccc2nc(-c3cccc(C(=O)N4CCN(C(C(N)=O)c5ccccc5)CC4)c3)sc2c1` (stereo not shown) [Example 84], the values for the IC50 in series [1], in series [2] and in series [3] were 316 nM, 200 nM and 1580 nM, respectively. The EC50 was 2510 nM with H1N1 A/California/07/09, 631 nM in series [4] and 31600 nM in the series on H5N1 A/Vietnam/1203/04. This molecule also returned a CC50 in “in vitro” above 50100 nM.

In the case of `Cc1nnc(C(c2ccccc2)N2CCN(C(=O)c3cccc(-c4nc5cc(C(F)(F)F)ccc5o4)c3)CC2)o1` (stereo not shown) [Example 86], the IC50 in series [1] is 79.4 nM; in series [2], 126 nM; in series [3] it was 3160 nM. Further, the EC50 in the series on H1N1 A/California/07/09 is 631 nM; in series [4] it was 794 nM; in the series on H5N1 A/Vietnam/1203/04, 31600 nM. This molecule gave a CC50 in the series “in vitro” of 31600 nM.

`O=C(c1cccc(-c2nc3cc(C(F)(F)F)ccc3o2)c1)N1CCN(C(c2ccccc2)c2nnc(C3(O)CNC3)o2)CC1` (stereo not shown) [Example 87]: the IC50 was 63.1 nM in series [1], 39.8 nM in series [2] and 2510 nM in series [3]. For the same molecule, the EC50 is 398 nM with H1N1 A/California/07/09, 501 nM in series [4] and 39800 nM in the series with H5N1 A/Vietnam/1203/04. Moreover, the CC50 in the series “in vitro” is above 50100 nM.

With `COC(=O)C(c1ccccc1)N1C[C@H]2CC[C@@H](C1)N2C(=O)c1cccc(-c2nc3ccc(OC)cc3s2)c1` (stereo partly shown) [Example 88], the half-inhibitory concentration (IC50) in series [1] is 200 nM; in series [2] it was 126 nM; in series [3] it was 501 nM. For the same molecule, the EC50 in the series on H1N1 A/California/07/09 was 1000 nM; in series [4] it was 794 nM; in the series with H5N1 A/Vietnam/1203/04, 12600 nM. Further, the CC50 in the series “in vitro” is above 50100 nM.

`COC(=O)C(c1ccccc1)N1CCN(C(=O)c2cccc(-c3ncc(C(=O)N4CCOCC4)s3)c2)CC1` (stereo not shown) [Example 89]: the IC50 in series [1] was 79.4 nM; in series [2] it was 79.4 nM; in series [3], 1260 nM. The EC50 with H1N1 A/California/07/09 is 1260 nM; in series [4] it was 794 nM; in the series on H5N1 A/Vietnam/1203/04 it was 15800 nM. In the series “in vitro”, this molecule yielded a CC50 above 50100 nM.

`COc1ccc2nc(-c3cccc(C(=O)N4CCN(C(C(C)=O)c5ccccc5)CC4)c3)sc2c1` (stereo not shown) [Example 90]: the IC50 in series [1] was 316 nM; in series [2], 158 nM; in series [3], 1000 nM. In addition, in the series on H1N1 A/California/07/09, the “Virus neutralization assay (VNA), pEC50 H1N1 A/California/07/09” value is 5.8. Further, in series [4], the “Virus neutralization assay (VNA), pEC50 H1N1 A/New Caledonia/20/99” value stood at 6.1. For the same molecule, the “Virus neutralization assay (VNA), pEC50 H5N1 A/Vietnam/1203/04” value in the series with H5N1 A/Vietnam/1203/04 (MDCK cells, CPE by ATPlite) is below 4.3. Also, in “in vitro”, it took 31600 nM to reach half-maximal cytotoxicity (CC50).

For the molecule `COc1ccc2nc(-c3cccc(C(=O)N4CCN(C(c5ccccc5)c5ccc[nH]c5=O)CC4)c3)sc2c1` (stereo not shown) [Example 91], the IC50 in series [1] was 501 nM; in series [2], 316 nM; in series [3] it was 2510 nM. Also, the EC50 in the series on H1N1 A/California/07/09 is 1580 nM; in series [4] it was 794 nM; in the series on H5N1 A/Vietnam/1203/04 it was above 50100 nM. The midpoint of cytotoxicity in the series “in vitro”, the CC50, lay at 39800 nM.

For the molecule `O=C(c1cccc(-c2nc3cc(C(F)(F)F)ccc3o2)c1)N1CCN(C(c2ccccc2)c2nnc(C3CNC3)o2)CC1` (stereo not shown) [Example 92], the results for the IC50 in series [1], in series [2] and in series [3] were 126 nM, 79.4 nM and 3160 nM, respectively. For the same molecule, the EC50 in the series on H1N1 A/California/07/09 was 3160 nM; in series [4], 794 nM; with H5N1 A/Vietnam/1203/04 it was 10000 nM. The same molecule had a CC50 in “in vitro” of 10000 nM.

With `COc1ccc2nc(-c3cccc(C(=O)N4CCN(C(C(=O)NCCN)c5ccccc5)CC4)c3)sc2c1` (stereo not shown) [Example 93], the IC50 in series [1] is 79.4 nM; in series [2], 63.1 nM; in series [3] it was 631 nM. Also, the EC50 in the series with H1N1 A/California/07/09 is 3980 nM; in series [4], 794 nM; in the series on H5N1 A/Vietnam/1203/04 it was 7940 nM. Further, the CC50 in the series “in vitro” is 15800 nM.

In the case of `COC(=O)C(C)(c1ccccc1)N1CCN(C(=O)c2cccc(-c3nc4ccc(OC)cc4s3)c2)CC1` (stereo not shown) [Example 94], the values for the IC50 in series [1], in series [2] and in series [3] were 79.4 nM, 50.1 nM and 631 nM, respectively. Also, the EC50 in the series on H1N1 A/California/07/09 is 316 nM; in series [4], 1000 nM; with H5N1 A/Vietnam/1203/04, 7940 nM. The CC50 in “in vitro” was 2510 nM.

With `Cc1nnc([C@@H](c2ccccc2)N2CCN(C(=O)c3cccc(-c4cc5ccccc5cn4)c3)CC2)o1` [Example 95], the IC50 in series [1] was 126 nM; in series [2], 158 nM; in series [3] it was 5010 nM. Also, the EC50 with H1N1 A/California/07/09 was 794 nM; in series [4], 1000 nM; with H5N1 A/Vietnam/1203/04 it was 31600 nM. Moreover, in “in vitro”, half-maximal cytotoxicity (CC50) was put at 39800 nM.
